Patent US20230365546A1, “5-SUBSTITUTED INDOLE 3-AMIDE DERIVATIVES, PREPARATION METHOD AND USE THEREOF” (ORIGIANT PHARMACEUTICAL CO., LTD, priority 2020, published 2023)
Where “and” joins values, the source holds several entries; their conditions need not be identical. Identical values can stand only once.

How the values were obtained:
[1] = test system: 422 kinases (including mutants); experiment: Kinase selectivity profile over the Eurofins panel; format: biochemical; details: 10 μM, Tables 3 and 4, FIGS. 1 and 2
Description: The selectivity profiles for Compounds 34 and 94 were plotted according to the data in Table 3 and Table 4. Wherein the red circular spot indicated the kinase were inhibited obviously, and the larger the radius of the red spot, the higher the inhibition against the kinase, and vice versa.

[2] = target: FGFR1(V561M)(h) (Homo sapiens (Human), UniProt P11362, V561M); experiment: Kinase Profiler 10 μM panel
Chain of FGFR1(V561M)(h) (P11362 22-822 V561M): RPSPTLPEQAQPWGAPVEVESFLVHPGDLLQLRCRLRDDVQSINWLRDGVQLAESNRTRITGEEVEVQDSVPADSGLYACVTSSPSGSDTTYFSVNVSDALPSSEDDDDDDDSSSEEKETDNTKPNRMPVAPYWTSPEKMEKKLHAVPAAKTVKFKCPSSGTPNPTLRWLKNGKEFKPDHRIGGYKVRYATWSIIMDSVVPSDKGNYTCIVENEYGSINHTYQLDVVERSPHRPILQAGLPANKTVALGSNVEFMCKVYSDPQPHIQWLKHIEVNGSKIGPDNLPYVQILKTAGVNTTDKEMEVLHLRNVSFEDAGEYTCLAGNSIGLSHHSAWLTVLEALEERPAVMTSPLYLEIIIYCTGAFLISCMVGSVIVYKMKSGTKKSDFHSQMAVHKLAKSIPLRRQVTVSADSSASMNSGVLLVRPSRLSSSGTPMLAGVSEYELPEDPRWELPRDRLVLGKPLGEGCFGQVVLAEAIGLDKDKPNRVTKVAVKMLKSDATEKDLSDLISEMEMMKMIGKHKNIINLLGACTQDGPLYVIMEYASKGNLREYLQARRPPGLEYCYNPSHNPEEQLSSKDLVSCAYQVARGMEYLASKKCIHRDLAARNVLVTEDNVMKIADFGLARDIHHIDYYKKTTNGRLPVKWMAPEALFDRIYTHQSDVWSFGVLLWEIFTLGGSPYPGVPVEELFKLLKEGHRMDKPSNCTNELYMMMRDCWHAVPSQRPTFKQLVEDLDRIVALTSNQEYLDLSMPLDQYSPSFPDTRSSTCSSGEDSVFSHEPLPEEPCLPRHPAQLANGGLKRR
Description: (§1) In vitro kinase assays were conducted using Kinase Profiler services provided by Eurofins. The experimental method was as follows: the small molecule compound to be tested (0.001-10 μM), the protein kinase to be tested were incubated with a buffer containing substrate, 10 mM magnesium acetate, and [γ-^33P-ATP], the reaction was started by adding Mg\TPmix, after incubation for a period of time at room temperature, a 3% phosphate solution was added to the buffer to stop the reaction. Subsequently, 10 μL of the reaction mixture was quantitatively pipetted onto P30 filter paper, which was washed three times with 75 mM phosphate solution and then once with methanol. The P30 filter paper was air-dried and scintillation fluid was added for scintillation counting.

[3] = target: Fms(Y969C)(h) (Homo sapiens (Human), UniProt P07333, Y969C); experiment: Kinase Profiler 10 μM panel
Description: as §1

[4] = target: PI3 Kinase (p110d/p85a)(m) (Mus musculus (Mouse), UniProt O35904); experiment: Kinase Profiler 10 μM panel
Description: as §1

[5] = target: PKCγ(h) (Homo sapiens (Human), UniProt P05129); experiment: Kinase Profiler 10 μM panel
Description: as §1

[6] = target: PKCθ(h) (Homo sapiens (Human), UniProt Q04759); experiment: Kinase Profiler 10 μM panel
Description: as §1

[7] = target: PKCμ(h) (Homo sapiens (Human), UniProt Q15139); experiment: Kinase Profiler 10 μM panel
Description: as §1

[8] = target: IRE1(h) (Homo sapiens (Human), UniProt O75460); experiment: Kinase Profiler 10 μM panel
Chain of IRE1(h) (O75460 19-977): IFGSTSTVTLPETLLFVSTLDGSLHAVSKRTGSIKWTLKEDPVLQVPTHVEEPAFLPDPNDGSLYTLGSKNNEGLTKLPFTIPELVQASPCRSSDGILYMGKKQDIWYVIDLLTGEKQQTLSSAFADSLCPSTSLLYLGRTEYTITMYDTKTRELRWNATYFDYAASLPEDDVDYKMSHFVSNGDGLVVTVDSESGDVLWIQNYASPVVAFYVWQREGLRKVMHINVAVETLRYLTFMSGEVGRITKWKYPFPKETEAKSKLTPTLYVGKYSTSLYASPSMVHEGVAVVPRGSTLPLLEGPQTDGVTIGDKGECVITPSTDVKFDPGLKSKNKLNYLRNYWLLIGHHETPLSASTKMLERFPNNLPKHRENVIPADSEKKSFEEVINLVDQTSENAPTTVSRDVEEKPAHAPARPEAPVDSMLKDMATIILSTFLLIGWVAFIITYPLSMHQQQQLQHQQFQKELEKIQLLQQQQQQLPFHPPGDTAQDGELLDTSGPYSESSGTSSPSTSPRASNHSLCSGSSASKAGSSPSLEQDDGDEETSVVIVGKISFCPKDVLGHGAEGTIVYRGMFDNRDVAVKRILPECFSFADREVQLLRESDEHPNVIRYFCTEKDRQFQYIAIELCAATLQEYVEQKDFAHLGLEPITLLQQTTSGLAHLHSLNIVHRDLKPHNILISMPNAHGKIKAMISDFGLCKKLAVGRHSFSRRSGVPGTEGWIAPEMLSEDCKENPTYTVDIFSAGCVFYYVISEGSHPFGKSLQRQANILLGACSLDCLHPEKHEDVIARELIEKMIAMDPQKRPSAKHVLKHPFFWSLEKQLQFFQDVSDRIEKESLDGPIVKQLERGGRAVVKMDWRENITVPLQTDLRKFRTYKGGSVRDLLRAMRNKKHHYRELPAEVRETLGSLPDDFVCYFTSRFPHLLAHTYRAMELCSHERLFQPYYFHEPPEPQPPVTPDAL
Description: as §1

[9] = target: CaMKIβ(h) (Homo sapiens (Human), UniProt Q6P2M8); experiment: Kinase Profiler 10 μM panel
Description: as §1

[10] = target: JNK2α2(h) (Homo sapiens (Human), UniProt P45984); experiment: Kinase Profiler 10 μM panel
Description: as §1

[11] = target: PRAK(h) (Homo sapiens (Human), UniProt Q8IW41); experiment: Kinase Profiler 10 μM panel
Description: as §1

[12] = target: Lck(h) (Homo sapiens (Human), UniProt P06239); experiment: Kinase Profiler 10 μM panel
Description: as §1

[13] = target: CDK16/cyclinY(h) (Homo sapiens (Human), UniProt Q00536); experiment: Kinase Profiler 10 μM panel
Description: as §1

[14] = target: CDK2/cyclinE(h) (Homo sapiens (Human), UniProt P24941); experiment: Kinase Profiler 10 μM panel
Description: as §1

[15] = target: CDK3/cyclinE(h) (Homo sapiens (Human), UniProt Q00526); experiment: Kinase Profiler 10 μM panel
Description: as §1

[16] = target: CDK9/cyclin T1(h) (Homo sapiens (Human), UniProt P50750); experiment: Kinase Profiler 10 μM panel
Chain of CDK9/cyclin T1(h) (P50750 whole entry): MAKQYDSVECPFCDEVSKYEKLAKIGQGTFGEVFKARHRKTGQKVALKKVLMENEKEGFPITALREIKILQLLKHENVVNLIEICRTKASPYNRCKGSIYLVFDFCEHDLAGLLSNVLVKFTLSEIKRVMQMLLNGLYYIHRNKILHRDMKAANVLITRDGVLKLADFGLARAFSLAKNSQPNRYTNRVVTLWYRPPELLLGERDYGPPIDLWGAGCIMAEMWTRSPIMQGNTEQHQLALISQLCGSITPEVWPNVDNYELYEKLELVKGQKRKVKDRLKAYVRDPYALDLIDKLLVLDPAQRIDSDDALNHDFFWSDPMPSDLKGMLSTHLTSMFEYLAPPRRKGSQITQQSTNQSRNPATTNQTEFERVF
Chain of CDK9/cyclin T1(h) (O60563 whole entry partner): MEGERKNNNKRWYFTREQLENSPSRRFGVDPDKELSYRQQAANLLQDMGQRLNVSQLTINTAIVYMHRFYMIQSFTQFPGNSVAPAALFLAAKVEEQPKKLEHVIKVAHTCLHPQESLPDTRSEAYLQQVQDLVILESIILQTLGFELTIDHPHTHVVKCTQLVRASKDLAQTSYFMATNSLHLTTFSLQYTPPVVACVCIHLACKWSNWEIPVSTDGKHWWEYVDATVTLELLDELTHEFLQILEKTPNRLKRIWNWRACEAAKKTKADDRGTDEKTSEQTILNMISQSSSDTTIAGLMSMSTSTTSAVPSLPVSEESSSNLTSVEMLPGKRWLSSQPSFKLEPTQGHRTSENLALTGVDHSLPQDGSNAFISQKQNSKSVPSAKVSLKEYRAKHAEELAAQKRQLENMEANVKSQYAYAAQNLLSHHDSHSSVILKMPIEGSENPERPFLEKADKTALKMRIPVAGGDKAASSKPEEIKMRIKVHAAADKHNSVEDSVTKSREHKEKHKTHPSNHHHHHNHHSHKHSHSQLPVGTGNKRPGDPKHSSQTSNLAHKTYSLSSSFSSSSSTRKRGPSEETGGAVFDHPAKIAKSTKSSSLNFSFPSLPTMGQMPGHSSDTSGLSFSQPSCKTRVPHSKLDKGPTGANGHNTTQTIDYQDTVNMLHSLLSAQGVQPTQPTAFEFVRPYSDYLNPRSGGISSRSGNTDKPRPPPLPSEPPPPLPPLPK
Description: as §1

[17] = target: MARK1(h) (Homo sapiens (Human), UniProt Q9P0L2); experiment: Kinase Profiler 10 μM panel
Description: as §1

[18] = target: Rsk4(h) (Homo sapiens (Human), UniProt Q9UK32); experiment: Kinase Profiler 10 μM panel
Chain of Rsk4(h) (Q9UK32 whole entry): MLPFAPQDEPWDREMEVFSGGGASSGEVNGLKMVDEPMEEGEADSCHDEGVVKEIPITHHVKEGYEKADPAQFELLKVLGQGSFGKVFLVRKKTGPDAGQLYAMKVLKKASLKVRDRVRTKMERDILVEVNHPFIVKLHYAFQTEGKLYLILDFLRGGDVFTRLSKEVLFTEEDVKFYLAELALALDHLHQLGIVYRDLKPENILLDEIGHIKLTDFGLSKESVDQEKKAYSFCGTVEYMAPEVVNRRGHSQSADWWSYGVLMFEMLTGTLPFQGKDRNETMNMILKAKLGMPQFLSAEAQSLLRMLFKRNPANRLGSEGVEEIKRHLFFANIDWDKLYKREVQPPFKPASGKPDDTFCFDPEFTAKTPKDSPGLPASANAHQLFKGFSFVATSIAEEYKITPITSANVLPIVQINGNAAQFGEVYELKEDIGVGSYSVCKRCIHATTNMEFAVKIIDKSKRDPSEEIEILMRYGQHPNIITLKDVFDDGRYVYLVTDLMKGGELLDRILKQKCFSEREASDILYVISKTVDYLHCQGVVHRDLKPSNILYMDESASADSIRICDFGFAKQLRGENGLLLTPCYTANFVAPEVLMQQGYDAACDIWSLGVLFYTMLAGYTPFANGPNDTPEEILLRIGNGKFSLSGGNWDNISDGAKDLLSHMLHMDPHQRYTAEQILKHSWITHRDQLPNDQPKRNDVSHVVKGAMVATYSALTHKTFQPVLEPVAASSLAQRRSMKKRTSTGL
Description: as §1

[19] = target: MEK1(h) (Homo sapiens (Human), UniProt Q02750); experiment: Kinase Profiler 10 μM panel
Chain of MEK1(h) (Q02750 whole entry): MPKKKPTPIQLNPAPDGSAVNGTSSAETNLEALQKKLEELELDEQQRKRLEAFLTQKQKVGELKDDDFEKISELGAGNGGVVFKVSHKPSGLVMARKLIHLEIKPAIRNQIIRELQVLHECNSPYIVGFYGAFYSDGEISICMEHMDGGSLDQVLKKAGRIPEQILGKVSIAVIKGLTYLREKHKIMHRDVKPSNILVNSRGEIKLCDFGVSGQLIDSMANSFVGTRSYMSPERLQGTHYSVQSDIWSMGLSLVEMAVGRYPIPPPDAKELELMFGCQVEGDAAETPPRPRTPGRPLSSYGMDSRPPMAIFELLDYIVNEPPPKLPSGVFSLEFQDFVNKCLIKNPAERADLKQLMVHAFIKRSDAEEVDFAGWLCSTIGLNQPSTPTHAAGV
Description: as §1

[20] = test system: ChaK1(h); experiment: Kinase Profiler 10 μM panel
Description: as §1

[21] = target: SGK2(h) (Homo sapiens (Human), UniProt Q9HBY8); experiment: Kinase Profiler 10 μM panel
Description: as §1

[22] = target: CK2α2(h) (Homo sapiens (Human), UniProt P19784); experiment: Kinase Profiler 10 μM panel
Description: as §1

[23] = target: MKK4(m) (Mus musculus (Mouse), UniProt P47809); experiment: Kinase Profiler 10 μM panel
Chain of MKK4(m) (P47809 whole entry): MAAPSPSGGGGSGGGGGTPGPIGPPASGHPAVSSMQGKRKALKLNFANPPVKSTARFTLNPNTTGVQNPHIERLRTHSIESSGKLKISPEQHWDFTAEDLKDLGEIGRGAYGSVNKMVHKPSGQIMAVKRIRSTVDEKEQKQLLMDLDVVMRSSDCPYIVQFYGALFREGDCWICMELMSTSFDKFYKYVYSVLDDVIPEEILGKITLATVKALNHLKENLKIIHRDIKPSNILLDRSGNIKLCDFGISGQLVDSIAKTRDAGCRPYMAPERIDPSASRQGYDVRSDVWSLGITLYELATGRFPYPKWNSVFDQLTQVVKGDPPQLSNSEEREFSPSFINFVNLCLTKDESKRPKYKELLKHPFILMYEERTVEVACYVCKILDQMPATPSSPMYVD
Description: as §1

[24] = target: Src(1-530)(h) (Homo sapiens (Human), UniProt P12931); experiment: Kinase Profiler 10 μM panel
Description: as §1

[25] = target: cKit(D816V)(h) (Homo sapiens (Human), UniProt P10721, D816V); experiment: Kinase Profiler 10 μM panel
Description: as §1

[26] = target: MLK2(h) (Homo sapiens (Human), UniProt Q02779); experiment: Kinase Profiler 10 μM panel
Description: The experimental method was as follows: the small molecule compound to be tested (0.001-10 μM), the protein kinase to be tested were incubated with a buffer containing substrate, 10 mM magnesium acetate, and [γ-^33P-ATP], the reaction was started by adding Mg\TPmix, after incubation for a period of time at room temperature, a 3% phosphate solution was added to the buffer to stop the reaction. Subsequently, 10 μL of the reaction mixture was quantitatively pipetted onto P30 filter paper, which was washed three times with 75 mM phosphate solution and then once with methanol. The P30 filter paper was air-dried and scintillation fluid was added for scintillation counting.

[27] = target: STK32C(h) (Homo sapiens (Human), UniProt Q86UX6); experiment: Kinase Profiler 10 μM panel
Description: as §1

[28] = target: MST2(h) (Homo sapiens (Human), UniProt Q13188); experiment: Kinase Profiler 10 μM panel
Description: as §1

[29] = target: Tie2(R849W)(h) (Homo sapiens (Human), UniProt Q02763, R849W); experiment: Kinase Profiler 10 μM panel
Description: as §1

[30] = target: EGFR(L858R)(h) (Homo sapiens (Human), UniProt P00533, L858R); experiment: Kinase Profiler 10 μM panel
Description: as §1

[31] = target: NEK7(h) (Homo sapiens (Human), UniProt Q8TDX7); experiment: Kinase Profiler 10 μM panel
Description: as §1

[32] = target: p70S6K(h) (Homo sapiens (Human), UniProt P23443); experiment: Kinase Profiler 10 μM panel
Chain of p70S6K(h) (P23443 whole entry): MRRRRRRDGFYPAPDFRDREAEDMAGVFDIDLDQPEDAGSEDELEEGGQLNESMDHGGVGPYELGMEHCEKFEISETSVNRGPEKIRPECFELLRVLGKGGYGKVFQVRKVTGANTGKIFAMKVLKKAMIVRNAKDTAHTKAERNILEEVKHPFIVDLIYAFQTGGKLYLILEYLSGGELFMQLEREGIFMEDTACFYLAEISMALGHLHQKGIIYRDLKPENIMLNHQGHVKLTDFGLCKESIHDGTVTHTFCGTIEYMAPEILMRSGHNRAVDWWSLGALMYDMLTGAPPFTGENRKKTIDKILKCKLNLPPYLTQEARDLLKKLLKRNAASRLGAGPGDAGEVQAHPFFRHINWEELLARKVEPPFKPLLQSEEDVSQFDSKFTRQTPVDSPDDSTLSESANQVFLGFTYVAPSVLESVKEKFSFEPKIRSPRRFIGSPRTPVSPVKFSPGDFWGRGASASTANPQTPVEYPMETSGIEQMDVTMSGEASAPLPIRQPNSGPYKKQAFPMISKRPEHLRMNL
Description: as §1

In the case of C[C@H](NC(=O)c1c[nH]c2ccc(-c3ccc4nc(NC(=O)C5CC5)sc4c3)cc12)c1cccc(F)c1 [Compound 34, (S)-5-(2-(cyclopropanecarboxamido)benzo[d]thiazol-6-yl)-N-(1-(3-fluorophenyl)ethyl)-1H-indole-3-carboxamide], the Kinase selectivity [1] is reported as “good kinase selectivity”, the Inhibition ratio [2] is reported as 80% and the Inhibition ratio [3] is reported as 18%. The Inhibition ratio [4] was 31%, the Inhibition ratio [5] was 7% and the Inhibition ratio [6] was −24%. The Inhibition ratio [7] was 6%, the Inhibition ratio [8] was 16% and the Inhibition ratio [9] was 11%. It also gave an Inhibition ratio [10] of 25%, an Inhibition ratio [11] of 27% and an Inhibition ratio [12] of 65%. For the same compound, the Inhibition ratio [13] was −30%, the Inhibition ratio [14] was 9% and the Inhibition ratio [15] was −13%. The Inhibition ratio [16] was 41%, the Inhibition ratio [17] was 6% and the Inhibition ratio [18] was −15%. For the same compound, the Inhibition ratio [19] was 12%, the Inhibition ratio [20] was 5% and the Inhibition ratio [21] was 2%. It also gave an Inhibition ratio [22] of 23%, an Inhibition ratio [23] of 9% and an Inhibition ratio [24] of 54%. The Inhibition ratio [25] was 0%, the Inhibition ratio [26] was 99% and the Inhibition ratio [27] was 3%. The Inhibition ratio [28] was −9%, the Inhibition ratio [29] was 86% and the Inhibition ratio [30] was 65%. The Inhibition ratio [31] was 4% and the Inhibition ratio [32] was 25%.
With C[C@H](NC(=O)c1cn(C)c2ccc(-c3ccn4nc(NC(=O)C5CC5)nc4c3)cc12)c1cccc(F)c1 [Compound 94, (S)-5-(2-(cyclopropanecarboxamido)-[1,2,4]triazolo[1,5-a]pyridin-7-yl)-N-(1-(3-fluorophenyl)ethyl)-1-methyl-1H-indole-3-carboxamide] the Kinase selectivity [1] was “good kinase selectivity”, the Inhibition ratio/% [2] was 45% and 30% and the Inhibition ratio/% [3] was 13%. It also gave an Inhibition ratio/% [4] of 44%, an Inhibition ratio/% [5] of 47% and an Inhibition ratio/% [6] of 7%. The Inhibition ratio/% [7] was 50%, the Inhibition ratio/% [8] was 22% and the Inhibition ratio/% [9] was 31%. The Inhibition ratio/% [10] was 40%, the Inhibition ratio/% [11] was 30% and the Inhibition ratio/% [12] was 44%. For the same compound, the Inhibition ratio/% [13] was 51%, the Inhibition ratio/% [14] was 36% and the Inhibition ratio/% [15] was 65%. For the same compound, the Inhibition ratio/% [16] was 61%, the Inhibition ratio/% [17] was −13% and the Inhibition ratio/% [18] was 3%. The Inhibition ratio/% [19] was 43%, the Inhibition ratio/% [20] was 66% and the Inhibition ratio/% [21] was −18%. It also gave an Inhibition ratio/% [22] of 25%, an Inhibition ratio/% [23] of 27% and an Inhibition ratio/% [24] of 20%. The Inhibition ratio/% [25] was 75%, the Inhibition ratio/% [26] was 99% and the Inhibition ratio/% [27] was 22%. For the same compound, the Inhibition ratio/% [28] was −14%, the Inhibition ratio/% [29] was 16% and the Inhibition ratio/% [30] was −5%. The Inhibition ratio/% [31] was 43% and the Inhibition ratio/% [32] was −18%.
